Experimental data as given in patent US20210382058A1, “PATIENT SELECTION FOR TREATMENT OF MYC POSITIVE CANCERS WITH INDENOISOQUINOLINES” (Purdue Research Foundation, priority 2020, published 2021).
Read-outs that look alike come from different tables or passages of the source.

Key:
NCI-60 cancer cell lines = test: NCI-60 cancer cell line drug screen (GI50, MGM); assay type: cell-based, human; conditions: for GI50 / mean GI50 across NCI-60 panel (MGM): Homo sapiens; for GI50: read-out: Antiproliferative Activities [GI50 (μM)]; for mean GI50 across NCI-60 panel (MGM): average of GI50 values across the entire panel of NCI-60 cancer cell lines
Description: Cancer cells were incubated with the test compounds at five concentrations ranging from 100 μM to 10 nM for 48 h. […] The approximate average of GI50 values across the entire panel of NCI-60 cancer cell lines for each compound was recorded as the MGM value.

[1] = test system: MYC protein expression in MCF-7 breast cancer cells; test: Western blotting of MYC protein level in MCF-7 cells; assay type: cell-based, human; conditions: for MYC-inhibitory effect (MYC protein, western blot): MCF-7, 0.5, 1, 2, and 4 μM, 24 h
Description: MCF-7 cells were incubated with each compound at four concentrations (0.5, 1, 2, and 4 μM) for 24 hours, and the MYC protein levels were measured (FIG. 3A and FIGS. 12 A to 12 F).
Cells were incubated at 37° C. with 5% CO2.
The gels were cut into strips that contained the proteins of interest and transferred to nitrocellulose membrane (I323002, Invitrogen) using an iBlot 2 Dry Transfer Device (Invitrogen). Immunoblotting was carried out according to standard procedures using the ECL detection method. The membrane was hybridized with the following antibodies: monoclonal anti-MYC (1:1000 dilution; rabbit, Cell Signaling Technology), monoclonal anti-GAPDH (1:2000 dilution; rabbit, Cell Signaling Technology).

[2] = A549, Non-Small Cell Lung Cancer, A549/ATCC
[3] = COLO 205, Colon Cancer, COLO 205
[4] = DU-145, Prostate Cancer, DU-145
[5] = EKVX, Non-Small Cell Lung Cancer, EKVX
[6] = HCC 2998, Colon Cancer, HCC-2998
[7] = HOP-62, Non-Small Cell Lung Cancer, HOP-62
[8] = HOP-92, Non-Small Cell Lung Cancer, HOP-92
[9] = Hs-578T, Breast Cancer, HS 578T
[10] = MDA-MB-231, Breast Cancer, MDA-MB-231/ATCC
[11] = MDA-MB-435, Melanoma, MDA-MB-435
[12] = NCI-H23, Non-Small Cell Lung Cancer, NCI-H23
[13] = NCI-H226, Non-Small Cell Lung Cancer, NCI-H226
[14] = NCI-H322M, Non-Small Cell Lung Cancer, NCI-H322M
[15] = NCI-H460, Non-Small Cell Lung Cancer, NCI-H460
[16] = NCI-H522, Non-Small Cell Lung Cancer, NCI-H522
[17] = OVCAR-3, Ovarian Cancer, OVCAR-3
[18] = OVCAR-4, Ovarian Cancer, OVCAR-4
[19] = OVCAR-5, Ovarian Cancer, OVCAR-5
[20] = OVCAR-8, Ovarian Cancer, OVCAR-8
[21] = SK-OV-3, Ovarian Cancer, SK-OV-3

## COc1cnc2c(c1)C(=O)c1c-2n(CCCNC2=NCCS2)c(=O)c2cc([N+](=O)[O-])ccc12 [Compound 12]
NCI-60 cancer cell lines; 786-0, Renal Cancer, 786-0
  GI50: 0.02 µM
NCI-60 cancer cell lines; [2]
  GI50: 0.04 µM
NCI-60 cancer cell lines; ACHN, Renal Cancer, ACHN
  GI50: < 0.01 µM
NCI-60 cancer cell lines; BT-549, Breast Cancer, BT-549
  GI50: 0.05 µM
NCI-60 cancer cell lines; CAKI-1, Renal Cancer, CAKI-1
  GI50: < 0.01 µM
NCI-60 cancer cell lines; CCRF-CEM, Leukemia, CCRF-CEM
  GI50: < 0.01 µM
NCI-60 cancer cell lines; [3]
  GI50: 0.24 µM
NCI-60 cancer cell lines; [4]
  GI50: < 0.01 µM
NCI-60 cancer cell lines; [5]
  GI50: 1.01 µM
NCI-60 cancer cell lines; [6]
  GI50: 1.03 µM
NCI-60 cancer cell lines; HCT-15, Colon Cancer, HCT-15
  GI50: 1.17 µM
NCI-60 cancer cell lines; HL-60, Leukemia, HL-60(TB)
  GI50: < 0.01 µM
NCI-60 cancer cell lines; [7]
  GI50: 0.01 µM
NCI-60 cancer cell lines; [8]
  GI50: 1.38 µM
NCI-60 cancer cell lines; HT-29, Colon Cancer, HT29
  GI50: 0.03 µM
NCI-60 cancer cell lines; [9]
  GI50: 1.82 µM
NCI-60 cancer cell lines; IGROV-1, Ovarian Cancer, IGROV1
  GI50: 0.08 µM
NCI-60 cancer cell lines; K562, Leukemia, K-562
  GI50: 0.11 µM
NCI-60 cancer cell lines; KM12, Colon Cancer, KM12
  GI50: 1.11 µM
NCI-60 cancer cell lines; LOX IMVI, Melanoma, LOX IMVI
  GI50: < 0.01 µM
NCI-60 cancer cell lines; Leukemia, SR
  GI50: < 0.01 µM
NCI-60 cancer cell lines; MCF7, Breast Cancer, MCF7
  GI50: < 0.01 µM
NCI-60 cancer cell lines; [10]
  GI50: 1.61 µM
NCI-60 cancer cell lines; [11]
  GI50: 0.48 µM
NCI-60 cancer cell lines; MDA-MB-468, Breast Cancer, MDA-MB-468
  GI50: 0.03 µM
NCI-60 cancer cell lines; MOLT-4, Leukemia, MOLT-4
  GI50: < 0.01 µM
NCI-60 cancer cell lines; Malme-3M, Melanoma, MALME-3M
  GI50: 0.62 µM
NCI-60 cancer cell lines; Melanoma, M14
  GI50: < 0.01 µM
NCI-60 cancer cell lines; [12]
  GI50: 0.02 µM
NCI-60 cancer cell lines; [13]
  GI50: 0.04 µM
NCI-60 cancer cell lines; [14]
  GI50: 0.04 µM
NCI-60 cancer cell lines; [15]
  GI50: < 0.01 µM
NCI-60 cancer cell lines; [16]
  GI50: < 0.01 µM
NCI-60 cancer cell lines; [17]
  GI50: 0.14 µM
NCI-60 cancer cell lines; [18]
  GI50: 0.48 µM
NCI-60 cancer cell lines; [19]
  GI50: 1.04 µM
NCI-60 cancer cell lines; [20]
  GI50: 0.02 µM
NCI-60 cancer cell lines; Ovarian Cancer, NCl/ADR-RES
  GI50: 0.02 µM
NCI-60 cancer cell lines; Prostate Cancer, PC-3
  GI50: 1.28 µM
NCI-60 cancer cell lines; RPMI-8226, Leukemia, RPMI-8226
  GI50: 0.03 µM
NCI-60 cancer cell lines; RXF 393, Renal Cancer, RXF 393
  GI50: 0.03 µM
NCI-60 cancer cell lines; Renal Cancer, U0-31
  GI50: < 0.01 µM
NCI-60 cancer cell lines; SF-268, CNS Cancer, SF-268
  GI50: < 0.01 µM
NCI-60 cancer cell lines; SF-295, CNS Cancer, SF-295
  GI50: 0.01 µM
NCI-60 cancer cell lines; SF-539, CNS Cancer, SF-539
  GI50: 0.04 µM
NCI-60 cancer cell lines; SK-MEL-2, Melanoma, SK-MEL-2
  GI50: 1.56 µM
NCI-60 cancer cell lines; SK-MEL-5, Melanoma, SK-MEL-5
  GI50: 0.03 µM
NCI-60 cancer cell lines; SK-MEL-28, Melanoma, SK-MEL-28
  GI50: 1.18 µM
NCI-60 cancer cell lines; [21]
  GI50: 0.01 µM
NCI-60 cancer cell lines; SN12C, Renal Cancer, SN12C
  GI50: < 0.01 µM
NCI-60 cancer cell lines; SNB-19, CNS Cancer, SNB-19
  GI50: 0.01 µM
NCI-60 cancer cell lines; SNB-75, CNS Cancer, SNB-75
  GI50: 0.03 µM
NCI-60 cancer cell lines; SW-620, Colon Cancer, SW-620
  GI50: 0.01 µM
NCI-60 cancer cell lines; T47D, Breast Cancer, T-47D
  GI50: < 0.01 µM
NCI-60 cancer cell lines; TK-10, Renal Cancer, TK-10
  GI50: 1.34 µM
NCI-60 cancer cell lines; U-251, CNS Cancer, U251
  GI50: < 0.01 µM
NCI-60 cancer cell lines; UACC-62, Melanoma, UACC-62
  GI50: < 0.01 µM
NCI-60 cancer cell lines; UACC-257, Melanoma, UACC-257
  GI50: 0.58 µM
NCI-60 cancer cell lines
  mean GI50 across NCI-60 panel (MGM): 55 nM
NCI-60 cancer cell lines; NCI-60 panel
  anticancer activity (GI50 profile) in words: more potent anticancer activities compared to compounds 4 and 20
[1]
  MYC-inhibitory effect (MYC protein, western blot): clear MYC-inhibitory effect

## O=C1c2ccccc2-c2c1c1ccccc1c(=O)n2CCCNCCO [Compound 13]
NCI-60 cancer cell lines; 786-0, Renal Cancer, 786-0
  GI50: 0.06 µM
NCI-60 cancer cell lines; A498, Renal Cancer, A498
  GI50: 0.13 µM
NCI-60 cancer cell lines; [2]
  GI50: 0.06 µM
NCI-60 cancer cell lines; ACHN, Renal Cancer, ACHN
  GI50: 0.04 µM
NCI-60 cancer cell lines; BT-549, Breast Cancer, BT-549
  GI50: 0.28 µM
NCI-60 cancer cell lines; CAKI-1, Renal Cancer, CAKI-1
  GI50: 0.24 µM
NCI-60 cancer cell lines; CCRF-CEM, Leukemia, CCRF-CEM
  GI50: 0.01 µM
NCI-60 cancer cell lines; [3]
  GI50: 0.07 µM
NCI-60 cancer cell lines; [4]
  GI50: 0.06 µM
NCI-60 cancer cell lines; [5]
  GI50: 0.43 µM
NCI-60 cancer cell lines; [6]
  GI50: 0.19 µM
NCI-60 cancer cell lines; HCT-15, Colon Cancer, HCT-15
  GI50: 0.15 µM
NCI-60 cancer cell lines; HCT-116, Colon Cancer, HCT-116
  GI50: 0.04 µM
NCI-60 cancer cell lines; HL-60, Leukemia, HL-60(TB)
  GI50: 0.21 µM
NCI-60 cancer cell lines; [7]
  GI50: 0.03 µM
NCI-60 cancer cell lines; [8]
  GI50: 0.15 µM
NCI-60 cancer cell lines; HT-29, Colon Cancer, HT29
  GI50: 0.12 µM
NCI-60 cancer cell lines; [9]
  GI50: 0.66 µM
NCI-60 cancer cell lines; K562, Leukemia, K-562
  GI50: 0.18 µM
NCI-60 cancer cell lines; KM12, Colon Cancer, KM12
  GI50: 0.19 µM
NCI-60 cancer cell lines; LOX IMVI, Melanoma, LOX IMVI
  GI50: 0.05 µM
NCI-60 cancer cell lines; Leukemia, SR
  GI50: < 0.01 µM
NCI-60 cancer cell lines; MCF7, Breast Cancer, MCF7
  GI50: < 0.01 µM
NCI-60 cancer cell lines; [10]
  GI50: 0.68 µM
NCI-60 cancer cell lines; [11]
  GI50: 0.39 µM
NCI-60 cancer cell lines; MOLT-4, Leukemia, MOLT-4
  GI50: < 0.01 µM
NCI-60 cancer cell lines; Malme-3M, Melanoma, MALME-3M
  GI50: 0.21 µM
NCI-60 cancer cell lines; Melanoma, M14
  GI50: 0.32 µM
NCI-60 cancer cell lines; [12]
  GI50: 0.21 µM
NCI-60 cancer cell lines; [13]
  GI50: 1.42 µM
NCI-60 cancer cell lines; [14]
  GI50: 0.34 µM
NCI-60 cancer cell lines; [15]
  GI50: < 0.01 µM
NCI-60 cancer cell lines; [16]
  GI50: 0.02 µM
NCI-60 cancer cell lines; [17]
  GI50: 0.41 µM
NCI-60 cancer cell lines; [18]
  GI50: 0.23 µM
NCI-60 cancer cell lines; [19]
  GI50: 0.38 µM
NCI-60 cancer cell lines; [20]
  GI50: 0.07 µM
NCI-60 cancer cell lines; Ovarian Cancer, NCl/ADR-RES
  GI50: 1.04 µM
NCI-60 cancer cell lines; Prostate Cancer, PC-3
  GI50: 0.28 µM
NCI-60 cancer cell lines; RPMI-8226, Leukemia, RPMI-8226
  GI50: 0.1 µM
NCI-60 cancer cell lines; RXF 393, Renal Cancer, RXF 393
  GI50: 0.96 µM
NCI-60 cancer cell lines; Renal Cancer, U0-31
  GI50: 0.1 µM
NCI-60 cancer cell lines; SF-268, CNS Cancer, SF-268
  GI50: 0.07 µM
NCI-60 cancer cell lines; SF-295, CNS Cancer, SF-295
  GI50: 0.08 µM
NCI-60 cancer cell lines; SF-539, CNS Cancer, SF-539
  GI50: 0.11 µM
NCI-60 cancer cell lines; SK-MEL-2, Melanoma, SK-MEL-2
  GI50: 0.55 µM
NCI-60 cancer cell lines; SK-MEL-5, Melanoma, SK-MEL-5
  GI50: 0.07 µM
NCI-60 cancer cell lines; SK-MEL-28, Melanoma, SK-MEL-28
  GI50: 1.11 µM
NCI-60 cancer cell lines; [21]
  GI50: 0.22 µM
NCI-60 cancer cell lines; SN12C, Renal Cancer, SN12C
  GI50: 0.16 µM
NCI-60 cancer cell lines; SNB-19, CNS Cancer, SNB-19
  GI50: 0.11 µM
NCI-60 cancer cell lines; SNB-75, CNS Cancer, SNB-75
  GI50: 0.23 µM
NCI-60 cancer cell lines; SW-620, Colon Cancer, SW-620
  GI50: 0.04 µM
NCI-60 cancer cell lines; T47D, Breast Cancer, T-47D
  GI50: 0.05 µM
NCI-60 cancer cell lines; TK-10, Renal Cancer, TK-10
  GI50: 0.41 µM
NCI-60 cancer cell lines; U-251, CNS Cancer, U251
  GI50: 0.1 µM
NCI-60 cancer cell lines; UACC-62, Melanoma, UACC-62
  GI50: 0.55 µM
NCI-60 cancer cell lines; UACC-257, Melanoma, UACC-257
  GI50: 1.18 µM
NCI-60 cancer cell lines
  mean GI50 across NCI-60 panel (MGM): 140 nM
[1]; Homo sapiens, MCF7, western blotting, MCF-7 cells, 0.5, 1, 2, and 4 μM, 24 hours, read-out: MYC Inhibition
  minimal effective concentration: 0.5 to 1 µM
[1]
  MYC-inhibitory effect (MYC protein, western blot): clear MYC-inhibitory effect
